Read-outs that look alike come from different tables or passages of the source.
Key:
[1] = system: HCV replicon (BB7 sequence) in Huh-7-Clone A cells; test: HCV replicon assay: ELISA of NS5A protein in replicon-containing cells (Inhibition of Viral RNA Replication); format: cell-based; details: HCV replicon, range of EC50, read-out: Replicon
How it was run: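 EC50 taken from an 8-point serially diluted dose curve, with NS5A level as read-out: fixed cells probed with primary monoclonal and HRP-conjugated secondary, TMB developed 30 min, OD 650 nm. Compound exposure 72 h in Huh-7-Clone A replicon cells (BB7 sequence).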

HCV NS5B = target: T1, HCV NS5B (Hepatitis C virus genotype 1b, UniProt Q9WMX2); test: Inhibition of viral RNA-dependent RNA polymerase (RdRp), in vitro biochemical assay; parameters: species or system HCV genotype 1b virus (BB7); details: HCV NS5B RdRp, BB7; reported as range class; read-out: HCV pol-BB7 IC50
T1 construct: fusion protein, of which the carboxyl terminal 21 amino acids were removed to enhance its solubility; His tag (GSHHHHHH); made in house; host or cells: E. coli
How it was run: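 IC50 values are the concentrations that halve in vitro RNA synthesis by HCV NS5B polymerase. The enzyme was a C-terminally truncated (Δ21), His-tagged genotype 1b (BB7 consensus) protein purified from E. coli.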

Structure (SMILES) | EC50 ([1]; Hepatitis C virus) [µM] | IC50 (HCV NS5B) [µM] | EC50 [1] [µM]
CNC(=O)c1c(-c2ccc(F)cc2)oc2cc(N3CCOCC3)c(OC(F)F)cc12 [Example 172, 5-Difluoromethoxy-2-(4-fluoro-phenyl)-6-morpholin-4-yl-benzofuran-3-carboxylic acid methyalmide] | < 1 | ≤ 0.5 | –
CNC(=O)c1c(-c2ccc(F)cc2)oc2cc(N3CCOCC3)c(OC3CCCC3)cc12 [Example 173, 5-Cyclopentyloxy-2-(4-fluoro-phenyl)-6-morpholin-4-yl-benzofuran-3-carboxylic acid mehtylamide] | < 1 | ≤ 0.5 | –
CNC(=O)c1c(-c2ccc(F)cc2)oc2cc(NS(C)(=O)=O)c(O)cc12 [Example 174, 2-(4-Fluoro-phenyl)-5-hydroxy-6-methanesulfonylamino-benzofuran-3-carboxylic acid methylamide] | < 30 | 0.5 to 5 | –
CNC(=O)c1c(-c2ccc(F)cc2)oc2cc(S(=O)(=O)N3CCSCC3)c(OC(C)C)cc12 [Example 175, 2-(4-Fluoro-phenyl)-5-isopropoxy-6-(thiomorpholine-4-sulfonyl)-benzofuran-3-carboxylic acid methylamide] | < 1 | ≤ 0.5 | –
CNC(=O)c1c(-c2ccc(F)cc2)oc2cc(S(=O)(=O)N3CCC(O)C3)c(OC(C)C)cc12 (stereo not drawn) [Example 176, 2-(4-Fluoro-phenyl)-6-(3-hydroxy-pyrrolidine-1-sulfonyl)-5-isopropoxy-benzofuran-3-carboxylic acid methylamide] | < 1 | ≤ 0.5 | –
CNC(=O)c1c(-c2ccc(F)cc2)oc2cc(-c3ccncc3)c(OC(C)C)cc12 [Example 177, 2-(4-Fluoro-phenyl)-5-isopropoxy-6-pyridin-4-yl-benzofuran-3-carboxylic acid methylamide] | < 10 | ≤ 0.5 | –
CNC(=O)c1c(-c2ccc(F)cc2)oc2cc(-c3cccc(S(C)(=O)=O)c3)c(OC(C)C)cc12 [Example 178, 2-(4-Fluoro-phenyl)-5-isopropoxy-6-(3-methanesulfonyl-phenyl)-benzofuran-3-carboxylic acid methylamide] | < 10 | ≤ 0.5 | –
CNC(=O)c1c(-c2ccc(F)cc2)oc2cc(-c3ccc(S(C)(=O)=O)cc3)c(OC(C)C)cc12 [Example 179, 2-(4-Fluoro-phenyl)-5-isopropoxy-6-(4-methanesulfonyl-phenyl)-benzofuran-3-carboxylic acid methylamide] | < 10 | ≤ 0.5 | –
CNC(=O)c1c(-c2ccc(F)cc2)oc2cc(N3CCOCC3)c(OCCCl)cc12 [Example 180, 5-(2-Chloro-ethoxy)-2-(4-fluoro-phenyl)-6-morpholin-4-yl-benzofuran-3-carboxylic acid methylamide] | > 30 | ≤ 0.5 | –
CNC(=O)c1c(-c2ccc(F)cc2)oc2cc(OCc3ccccc3)c(OC)cc12 [Example 181, 6-Benzyloxy-2-(4-fluoro-phenyl)-5-methoxy-benzofuran-3-carboxylic acid methylamide] | < 10 | ≤ 0.5 | –
CNC(=O)c1c(-c2ccc(F)cc2)oc2cc(N)c(O)cc12 [Example 182, 6-Ainino-2-(4-fluoro-phenyl)-5-hydroxy-benzofuran-3-carboxylic acid methylamide] | < 30 | 0.5 to 5 | –
CNC(=O)c1c(-c2ccc(F)cc2)oc2cc(OCc3ccccc3)c(OCc3ccccc3)cc12 [Example 183, 5,6-Bis-benzyloxy-2-(4-fluoro-phenyl)-benzofuran-3-carboxylic acid methylamide] | < 10 | > 30 | –
CNC(=O)c1c(-c2ccc(F)cc2)oc2cc(-c3noc(C(F)(F)F)n3)c(OC(C)C)cc12 [Example 184, 2-(4-Fluoro-phenyl)-5-isopropoxy-6-(5-trifluoromethyl-[1,2,4]oxadiazol-3-yl)-benzofuran-3-carboxylic acid methylamide] | < 30 | 0.5 to 5 | –
CNC(=O)c1c(-c2ccc(F)cc2)oc2cc(N3CCN(C(N)=O)CC3)c(OC(C)C)cc12 [Example 185, [2-(4-Fluoro-phenyl)-5-isopropoxy-3-methylcarbamoyl-benzofuran-6-yl]-piperazine-1-carboxylic acid amide] | – | 5 to 30 | < 10
CNC(=O)c1c(-c2ccc(F)cc2)oc2cc(N3CCSCC3)c(OC(C)C)cc12 [Example 186, 2-(4-Fluoro-phenyl)-5-isopropoxy-6-thiomorpholin-4-yl-benzofuran-3-carboxylic acid methylamide] | < 1 | ≤ 0.5 | –
CNC(=O)c1c(-c2ccc(F)cc2)oc2cc(C(=O)O)c(OC(C)C)cc12 [Example 187, 2-(4-Fluoro-phenyl)-5-isopropoxy-3-methylcarbamoyl-benzofuran-6-carboxylic acid] | < 10 | 5 to 30 | –
CNC(=O)c1c(-c2ccc(F)cc2)oc2cc(N3CC[S+]([O-])CC3)c(OC(C)C)cc12 [Example 188, 2-(4-Fluoro-phenyl)-5-isopropoxy-6-(1-oxo-thiomorpholin-4-yl)-benzofuran-3-carboxylic acid methylamide] | < 10 | 5 to 30 | –
CNC(=O)c1c(-c2ccc(F)cc2)oc2cc(N(CC(=O)O)S(C)(=O)=O)c(OC(C)C)cc12 [Example 189, {[2-(4-Fluoro-phenyl)-5-isopropoxy-3-methylcarbamoyl-benzofuran-6-yl]-methanesulfonyl-amino}-acetic acid] | < 1 | 0.5 to 5 | –
CNC(=O)c1c(-c2ccc(F)cc2)oc2cc(N(C3CCC3)S(C)(=O)=O)c(OC(C)C)cc12 [Example 190, 6-(Cyclobutyl-methanesulfonyl-amino)-2-(4-fluoro-phenyl)-5-isopropoxy-benzofuran-3-carboxylic acid methylamide] | < 1 | ≤ 0.5 | –
CNC(=O)c1c(-c2ccc(F)cc2)oc2cc(N(CCN3CCOCC3)S(C)(=O)=O)c(OC(C)C)cc12 [Example 191, 2-(4-Fluoro-phenyl)-5-isopropoxy-6-[methanesulfonyl-(2-morpholin-4-yl-ethyl)-amino]-benzofuran-3-carboxylic acid methylamide] | < 1 | ≤ 0.5 | –
CNC(=O)c1c(-c2ccc(F)cc2)oc2cc(O)c(O)cc12 [Example 192, 2-(4-Fluoro-phenyl)-5,6-dihydroxy-benzofuran-3-carboxylic acid methylamide] | > 30 | 5 to 30 | –
CNC(=O)c1c(-c2ccc(F)cc2)oc2cc(N(CCOC)S(C)(=O)=O)c(OC(C)C)cc12 [Example 193, 2-(4-Fluoro-phenyl)-5-isopropoxy-6-[methanesulfonyl-(2-methoxy-ethyl)-amino]-benzofuran-3-carboxylic acid methylamide] | < 1 | ≤ 0.5 | –
C=CCN(c1cc2oc(-c3ccc(F)cc3)c(C(=O)NC)c2cc1OC(C)C)S(C)(=O)=O [Example 195, 6-(Allyl-methanesulfonyl-amino)-2-(4-fluoro-phenyl)-5-isopropoxy-benzofuran-3-carboxylic acid methylamide] | < 1 | ≤ 0.5 | –
CNC(=O)c1c(-c2ccc(F)cc2)oc2cc(C(C)=O)c(OC(C)C)cc12 [Example 196, 6-Acetyl-2-(4-fluoro-phenyl)-5-isopropoxy-benzofuran-3-carboxylic acid methyladime] | < 1 | ≤ 0.5 | –
CC(C)NC(=O)c1c(-c2ccc(F)cc2)oc2cc(NS(C)(=O)=O)c(OC(C)C)cc12 [Example 197, 2-(4-Fluoro-phenyl)-5-isopropoxy-6-methanesulfonylamino-benzofuran-3-carboxylic acid isopropylamide] | < 10 | 5 to 30 | –
CNC(=O)c1c(-c2ccc(F)cc2)oc2cc(-c3noc(C)n3)c(OC(C)C)cc12 [Example 198, 2-(4-Fluoro-phenyl)-5-isopropoxy-6-(5-methyl-[1,2,4]oxadiazol-3-yl)-benzofuran-3-carboxylic acid methylamide] | < 1 | ≤ 0.5 | –
CC(C)Oc1cc2c(C(=O)NC3CC3)c(-c3ccc(F)cc3)oc2cc1NS(C)(=O)=O [Example 199, 2-(4-Fluoro-phenyl)-5-isopropoxy-6-methanesulfonylamino-benzofuran-3-carboxylic acid cyclopropylamide] | < 1 | ≤ 0.5 | –
CCNC(=O)c1c(-c2ccc(F)cc2)oc2cc(NS(C)(=O)=O)c(OC(C)C)cc12 [Example 200, 2-(4-Fluoro-phenyl)-5-isopropoxy-6-methanesulfonylamino-benzofuran-3-carboxylic acid ethylamide] | < 1 | ≤ 0.5 | –
CNC(=O)c1c(-c2ccc(F)cc2)oc2cc(N3CCOCC3)c(OCc3csc(C)n3)cc12 [Example 201, 2-(4-Fluoro-phenyl)-5-(2-methyl-thiazol-4-ylmethoxy)-6-morpholin-4-yl-benzofuran-3-carboxylic acid methylamide] | < 1 | ≤ 0.5 | –
CNC(=O)c1c(-c2ccc(F)cc2)oc2cc(C(C)(C)O)c(OC(C)C)cc12 [Example 202, 2-(4-Fluoro-phenyl)-6-(1-hydroxy-1-methyl-ethyl)-5-isopropoxy-benzofuran-3-carboxylic acid methylamide] | < 1 | ≤ 0.5 | –

From US7265152B2 (ViroPharma Incorporated, priority 2002, dated 2007)
